Assay: Solubility in 0.2M K2CO3 solution (pH of a developer solution)
Assay type: physicochemical
Settings: room temperature

| Structure (SMILES) | Solubility of the active substance in K2CO3 0.2M solution [%] |
| --- | --- |
| O=C([O-])CC(Nc1nc(Nc2ccccc2)nc(Nc2ccc(/C=C/c3ccc(Nc4nc(Nc5ccccc5)nc(NC(CC(=O)[O-])C(=O)[O-])n4)cc3S(=O)(=O)[O-])c(S(=O)(=O)[O-])c2)n1)C(=O)[O-].[Na+].[Na+].[Na+].[Na+].[Na+].[Na+] (stereo not shown) [B] | 25.6 |
| O=C(O)CN(CC(=O)O)c1nc(Nc2ccc(/C=C/c3ccc(Nc4nc(Nc5cc(S(=O)(=O)O)ccc5S(=O)(=O)O)nc(N(CC(=O)O)CC(=O)O)n4)cc3S(=O)(=O)O)c(S(=O)(=O)O)c2)nc(Nc2cc(S(=O)(=O)O)ccc2S(=O)(=O)O)n1.[Na+].[Na+].[Na+].[Na+].[Na+].[Na+].[Na+].[Na+].[Na+].[Na+] [G] | 32.0 |
| O=C([O-])CC(Nc1nc(Nc2ccc(/C=C/c3ccc(Nc4nc(Nc5cc(S(=O)(=O)[O-])ccc5S(=O)(=O)[O-])nc(NC(CC(=O)[O-])C(=O)[O-])n4)cc3S(=O)(=O)[O-])c(S(=O)(=O)[O-])c2)nc(Nc2cc(S(=O)(=O)[O-])ccc2S(=O)(=O)[O-])n1)C(=O)[O-].[Na+].[Na+].[Na+].[Na+].[Na+].[Na+].[Na+].[Na+].[Na+].[Na+] (stereo not shown) [C] | 39.0 |
| O=C([O-])CN(CC(=O)[O-])c1nc(Nc2ccccc2)nc(Nc2ccc(/C=C/c3ccc(Nc4nc(Nc5ccccc5)nc(N(CC(=O)[O-])CC(=O)[O-])n4)cc3S(=O)(=O)[O-])c(S(=O)(=O)[O-])c2)n1.[Na+].[Na+].[Na+].[Na+].[Na+].[Na+] [E] | 38.5 |

Continued, values first:

| Solubility of the active substance in K2CO3 0.2M solution [%] | Structure (SMILES) |
| --- | --- |
| 32.0 | CN(CC(=O)[O-])c1nc(Nc2ccc(/C=C/c3ccc(Nc4nc(Nc5cc(S(=O)(=O)[O-])ccc5S(=O)(=O)[O-])nc(N(C)CC(=O)[O-])n4)cc3S(=O)(=O)[O-])c(S(=O)(=O)[O-])c2)nc(Nc2cc(S(=O)(=O)[O-])ccc2S(=O)(=O)[O-])n1.[Na+].[Na+].[Na+].[Na+].[Na+].[Na+].[Na+].[Na+] [H] |
| 6.6 | O=S(=O)([O-])c1ccc(Nc2nc(Nc3ccc(/C=C/c4ccc(Nc5nc(Nc6ccc(S(=O)(=O)[O-])cc6S(=O)(=O)[O-])nc(N6CCOCC6)n5)cc4S(=O)(=O)[O-])c(S(=O)(=O)[O-])c3)nc(N3CCOCC3)n2)c(S(=O)(=O)[O-])c1.[Na+].[Na+].[Na+].[Na+].[Na+].[Na+] [Comp-3, reference compound] |
| 3.4 | COc1nc(NCCS(=O)(=O)[O-])nc(Nc2ccc(/C=C/c3ccc(Nc4nc(OC)nc(N(CCO)CCO)n4)cc3S(=O)(=O)[O-])c(S(=O)(=O)[O-])c2)n1.[Na+].[Na+].[Na+] [Comp-1, reference compound] |
